Earlier results in publication PMC4131438 (ACS chemical biology, 2014).

Tests used:
[1] = BIM BH3 aa 146-166 template, staple at R154/E158 i, i+4

Row | Substance | binding to pro-apoptotic BAX (pro-apoptotic BAX; fluorescence polarization binding assays, aa 146-166 constructs) | α-helical content in solution [1] | binding to full-length BAX (pro-apoptotic BAX; aa 145-164 constructs)
1 | BIM BH3 peptide (aa 146-166): unmodified BIM BH3 peptide, amino acids 146-166 | no detectable BAX interaction | 20% | 
2 | BIM BH3 peptide (aa 145-164): unmodified BIM BH3 peptide composed of amino acids 145-164 |  |  | negligible binding
